Measurements reported in patent US11427606B2, “Azithromycin derivatives containing a phosphonium ion as anticancer agents” (Rising Tide Foundation, priority 2017, dated 2022).

Tested on: MDA-231 cancer cells
Assay: Inhibition of proliferation assay: cell confluence (IncuCyte imaging)
Format: cell-based
Conditions: compound at 10 uM; MDA-231 cells; IncuCyte images every 3 h over 4-5 d; relative confluence normalised to time zero
Description: Inhibition of Proliferation Assay
The confluence value is a surrogate for cell proliferation and growth. The value is expressed as a percent confluence, which represents the fraction of culture dish-surface that is occupied by cells. As the number of cells in the dish increases over time due to proliferation, so will their coverage of that surface increase. Expansion of the cell population on the cell culture-dish surface and confluence have mostly a linear relationship until the cells on the plate surface begin to reach saturation or maximum density.
Confluence is determined based on image analysis. Image based software can identify objects in the image field base on changes to pixel density in a grey scale image. The software can then assign a mask to those pixels within the object. Objects can be ‘gated’ out based on size and shape. To determine cell confluence, images of cells are first masked as objects. The surface area of the image that is masked is measured and compared to the total surface area of the culture dish surface to obtain a percent confluence.
MDA-231 cancer cells were obtained from ATCC. Cells were cultured in Dulbecco's Modified Eagle Medium (DMEM) supplemented with 10% Fetal Bovine Serum (FBS), 2 mM Glutamax, 1 mM Non Essential Amino Acid (NEAA) solution and 1 mM sodium pyruvate. […] Final DMSO concentrations were […]. Images were acquired with an IncuCyte Live Cell Imaging microscopy (Essen Bioscience) at every 3 h under cell culture conditions with 10× objective over 4-5 d. Cell confluence was calculated from one field of view per well using the IncuCyte in-built algorithm. Relative confluence values were obtained by normalising each value to the time zero value in each sample.

| Compound | % Confluence |
| --- | --- |
| CC[C@H]1OC(=O)[C@H](C)[C@@H](O)[C@H](C)[C@@H](O[C@@H]2O[C@H](C)C[C@H](N(C)C)[C@H]2O)[C@](C)(O)C[C@@H](C)CN(CCCCCCCC[P+](c2ccccc2)(c2ccccc2)c2ccc(N(C)C)cc2)[C@H](C)[C@@H](O)[C@]1(C)O.[I-] [Example 21] | 89.9% |
| CC[C@H]1OC(=O)[C@H](C)[C@@H](O[C@H]2C[C@@](C)(OC)[C@@H](O)[C@H](C)O2)[C@H](C)[C@@H](O[C@@H]2O[C@H](C)C[C@H](N(C)C)[C@H]2O)[C@](C)(O)C[C@@H](C)CN(C(=O)CCCCCCCCCCC[P+](C)(c2ccccc2)c2ccccc2)[C@H](C)[C@@H](O)[C@]1(C)O.[Cl-] [Example 22, {12-[(2R,3S,4R,5R,8R,10R,11R,12S,13S,14R)-11-{[(2S,3R,4S,6R)-4-(dimethylamino)-3-hydroxy-6-methyloxan-2-yl]oxy}-2-ethyl-3,4,10-trihydroxy-13-{[(2R,4R,5S,6S)-5-hydroxy-4-methoxy-4,6-dimethyloxan-2-yl]oxy}-3,5,8,10,12,14-hexamethyl-15-oxo-1-oxa-6-azacyclopentadecan-6-yl]-12-oxododecyl}(methyl)diphenylphosphonium chloride] | 137% |
| CC[C@H]1OC(=O)[C@H](C)[C@@H](O[C@H]2C[C@@](C)(OC)[C@@H](O)[C@H](C)O2)[C@H](C)[C@@H](O[C@@H]2O[C@H](C)C[C@H](N(C)C)[C@H]2O)[C@](C)(O)C[C@@H](C)CN(C(=O)CCCCCCCCCCC[PH](C)(C)c2ccccc2)[C@H](C)[C@@H](O)[C@]1(C)O [Example 23, {12-[(2R,3S,4R,5R,8R,10R,11R,12S,13S,14R)-11-{[(2S,3R,4S,6R)-4-(dimethylamino)-3-hydroxy-6-methyloxan-2-yl]oxy}-2-ethyl-3,4,10-trihydroxy-13-{[(2R,4R,5S,6S)-5-hydroxy-4-methoxy-4,6-dimethyloxan-2-yl]oxy}-3,5,8,10,12,14-hexamethyl-15-oxo-1-oxa-6-azacyclopentadecan-6-yl]-12-oxododecyl}dimethylphenylphosphonium chloride] | 7.5% |
| CC[C@H]1OC(=O)[C@H](C)[C@@H](O[C@H]2C[C@@](C)(OC)[C@@H](O)[C@H](C)O2)[C@H](C)[C@@H](O[C@@H]2O[C@H](C)C[C@H](N(C)C)[C@H]2O)[C@](C)(O)C[C@@H](C)CN(C(=O)CCCCCCCCCCC[P+](C)(C)C)[C@H](C)[C@@H](O)[C@]1(C)O.[Cl-] [Example 24, {12-[(2R,3S,4R,5R,8R,10R,11R,12S,13S,14R)-11-{[(2S,3R,4S,6R)-4-(dimethylamino)-3-hydroxy-6-methyloxan-2-yl]oxy}-2-ethyl-3,4,10-trihydroxy-13-{[(2R,4R,5S,6S)-5-hydroxy-4-methoxy-4,6-dimethyloxan-2-yl]oxy}-3,5,8,10,12,14-hexamethyl-15-oxo-1-oxa-6-azacyclopentadecan-6-yl]-12-oxododecyl}trimethylphosphonium chloride] | 140% |
| CC[C@H]1OC(=O)[C@H](C)[C@@H](O[C@H]2C[C@@](C)(OC)[C@@H](O)[C@H](C)O2)[C@H](C)[C@@H](O[C@@H]2O[C@H](C)C[C@H](N(C)C)[C@H]2O)[C@](C)(O)C[C@@H](C)CN(C(=O)CCCCCCC[P+](C)(C)C)[C@H](C)[C@@H](O)[C@]1(C)O.[Cl-] [Example 25, {8-[(2R,3S,4R,5R,8R,10R,11R,12S,13S,14R)-11-{[(2S,3R,4S,6R)-4-(dimethylamino)-3-hydroxy-6-methyloxan-2-yl]oxy}-2-ethyl-3,4,10-trihydroxy-13-{[(2R,4R,5S,6S)-5-hydroxy-4-methoxy-4,6-dimethyloxan-2-yl]oxy}-3,5,8,10,12,14-hexamethyl-15-oxo-1-oxa-6-azacyclopentadecan-6-yl]-8-oxooctyl}trimethylphosphonium chloride] | 124% |
| CC[C@H]1OC(=O)[C@H](C)[C@@H](O[C@H]2C[C@@](C)(OC)[C@@H](O)[C@H](C)O2)[C@H](C)[C@@H](O[C@@H]2O[C@H](C)C[C@H](N(C)C)[C@H]2O)[C@](C)(O)C[C@@H](C)CN(C(=O)CCCCCCC[P+](c2ccccc2)(c2ccccc2)c2cnn(C)c2)[C@H](C)[C@@H](O)[C@]1(C)O.[Cl-] [Example 27, {8-[(2R,3S,4R,5R,8R,10R,11R,12S,13S,14R)-11-{[(2S,3R,4S,6R)-4-(dimethylamino)-3-hydroxy-6-methyloxan-2-yl]oxy}-2-ethyl-3,4,10-trihydroxy-13-{[(2R,4R,5S,6S)-5-hydroxy-4-methoxy-4,6-dimethyloxan-2-yl]oxy}-3,5,8,10,12,14-hexamethyl-15-oxo-1-oxa-6-azacyclopentadecan-6-yl]-8-oxooctyl}(1-methyl-1H-pyrazol-4-yl)diphenylphosphonium chloride] | 123% |
| CC[C@H]1OC(=O)[C@H](C)[C@@H](O[C@H]2C[C@@](C)(OC)[C@@H](O)[C@H](C)O2)[C@H](C)[C@@H](O[C@@H]2O[C@H](C)C[C@H](N(C)C)[C@H]2O)[C@](C)(O)C[C@@H](C)CN(C(=O)CCCCCCCCCCC[P+](c2ccccc2)(c2ccccc2)c2cnn(C)c2)[C@H](C)[C@@H](O)[C@]1(C)O.[Cl-] [Example 28, {12-[(2R,3S,4R,5R,8R,10R,11R,12S,13S,14R)-11-{[(2S,3R,4S,6R)-4-(dimethylamino)-3-hydroxy-6-methyloxan-2-yl]oxy}-2-ethyl-3,4,10-trihydroxy-13-{[(2R,4R,5S,6S)-5-hydroxy-4-methoxy-4,6-dimethyloxan-2-yl]oxy}-3,5,8,10,12,14-hexamethyl-15-oxo-1-oxa-6-azacyclopentadecan-6-yl]-12-oxododecyl}(1-methyl-1H-pyrazol-4-yl)diphenylphosphonium chloride] | 16% |
| CC[C@H]1OC(=O)[C@H](C)[C@@H](O[C@H]2C[C@@](C)(OC)[C@@H](O)[C@H](C)O2)[C@H](C)[C@@H](O[C@@H]2O[C@H](C)C[C@H](N(C)C)[C@H]2O)[C@](C)(O)C[C@@H](C)CN(C(=O)CCCCCCCCCCC[PH](c2cc(C)cc(C)c2)(c2cc(C)cc(C)c2)c2cc(C)cc(C)c2)[C@H](C)[C@@H](O)[C@]1(C)O [Example 29, {12-[(2R,3S,4R,5R,8R,10R,11R,12S,13S,14R)-11-{[(2S,3R,4S,6R)-4-(dimethylamino)-3-hydroxy-6-methyloxan-2-yl]oxy}-2-ethyl-3,4,10-trihydroxy-13-{[(2R,4R,5S,6S)-5-hydroxy-4-methoxy-4,6-dimethyloxan-2-yl]oxy}-3,5,8,10,12,14-hexamethyl-15-oxo-1-oxa-6-azacyclopentadecan-6-yl]-12-oxododecyl}tris(3,5-dimethylphenyl)phosphonium chloride] | 4.6% |
| CC[C@H]1OC(=O)[C@H](C)[C@@H](O[C@H]2C[C@@](C)(OC)[C@@H](O)[C@H](C)O2)[C@H](C)[C@@H](O[C@@H]2O[C@H](C)C[C@H](N(C)C)[C@H]2O)[C@](C)(O)C[C@@H](C)CN(C(=O)CCCCCCCCCCC[PH](c2cccc(C)c2)(c2cccc(C)c2)c2cccc(C)c2)[C@H](C)[C@@H](O)[C@]1(C)O [Example 30, {12-[(2R,3S,4R,5R,8R,10R,11R,12S,13S,14R)-11-{[(2S,3R,4S,6R)-4-(dimethylamino)-3-hydroxy-6-methyloxan-2-yl]oxy}-2-ethyl-3,4,10-trihydroxy-13-{[(2R,4R,5S,6S)-5-hydroxy-4-methoxy-4,6-dimethyloxan-2-yl]oxy}-3,5,8,10,12,14-hexamethyl-15-oxo-1-oxa-6-azacyclopentadecan-6-yl]-12-oxododecyl}tris(3-methylphenyl)phosphonium chloride] | 4.4% |
| CC[C@H]1OC(=O)[C@H](C)[C@@H](O[C@H]2C[C@@](C)(OC)[C@@H](O)[C@H](C)O2)[C@H](C)[C@@H](O[C@@H]2O[C@H](C)C[C@H](N(C)C)[C@H]2O)[C@](C)(O)C[C@@H](C)CN(C(=O)CCCCCCCCCCC[PH](c2ccccc2)(c2ccccc2)C2COC2)[C@H](C)[C@@H](O)[C@]1(C)O [Example 32, {12-[(2R,3S,4R,5R,8R,10R,11R,12S,13S,14R)-11-{[(2S,3R,4S,6R)-4-(dimethylamino)-3-hydroxy-6-methyloxan-2-yl]oxy}-2-ethyl-3,4,10-trihydroxy-13-{[(2R,4R,5S,6S)-5-hydroxy-4-methoxy-4,6-dimethyloxan-2-yl]oxy}-3,5,8,10,12,14-hexamethyl-15-oxo-1-oxa-6-azacyclopentadecan-6-yl]-12-oxododecyl}(oxetan-3-yl)diphenylphosphonium chloride] | 129% |
| CC[C@H]1OC(=O)[C@H](C)[C@@H](O[C@H]2C[C@@](C)(OC)[C@@H](O)[C@H](C)O2)[C@H](C)[C@@H](O[C@@H]2O[C@H](C)C[C@H](N(C)C)[C@H]2O)[C@](C)(O)C[C@@H](C)CN(C(=O)CCCCCCCCCCC[PH](c2ccccc2)(c2ccccc2)C(C)C)[C@H](C)[C@@H](O)[C@]1(C)O [Example 33, {12-[(2R,3S,4R,5R,8R,10R,11R,12S,13S,14R)-11-{[(2S,3R,4S,6R)-4-(dimethylamino)-3-hydroxy-6-methyloxan-2-yl]oxy}-2-ethyl-3,4,10-trihydroxy-13-{[(2R,4R,5S,6S)-5-hydroxy-4-methoxy-4,6-dimethyloxan-2-yl]oxy}-3,5,8,10,12,14-hexamethyl-15-oxo-1-oxa-6-azacyclopentadecan-6-yl]-12-oxododecyl}diphenyl(propan-2-yl)phosphonium chloride] | 5.6% |
